Patent US20030134851A1, “Methods and compositions for providing glutamine” (priority 2001, published 2003)
Entries after “also recorded” stand apart in the source; their conditions may differ. Marks after values point to notes of the source that are not given here.

Legend:
[1] = Stability in liquid nutritional type products during retort sterilization and room temperature storage; format: physicochemical
Method: In order to test the stability of N-acetyl-L-glutamine in a matrix similar to that found in liquid nutritional type products, the following procedure was followed. […] The product containing N-acetyl-L-glutamine was made according to the procedure set forth above in Example 1. The product containing glutamine was made in a similar manner, except […].79 kg) was substituted for N-acetyl-L-glutamine. The products were assessed for degradation before and after a retort sterilization process, which is typical for liquid nutritional processing (here, 128° C. for 5 minutes). The products were stored at room temperature (20-22° C.) and assessed for evidence of degradation at 1, 2 and 3 months. Glutamine, N-acetyl-L-glutamine and pyroglutamic acid (if present) were quantified at each process and time point. In order to analyze by HPLC for glutamine, N-acetyl-L-glutamine and pyroglutamic acid, samples were filtered as follows. A 5.0 mL aliquot was transferred to a 50 mL volumetric flask. Twenty drops of 1 M hydrochloric acid was added and the sample was diluted to volume with deionized water. An aliquot was filtered through a 0.45 micron filter (Millipore, Millex®-HV, 25 mm). The samples were analyzed by HPLC as described above (Heat Stability section). The total amount of pyroglutamic acid present in the protein formula, including both free pyroglutamic acid and N-terminal pyroglutamic acid, can be determined by the following method. Initially, samples were prepared as a water solution to a concentration of approximately 18 g total protein/L. A 20 microliter aliquot of the prepared sample material was placed in a 1.5 mL screw cap vial, and 980 microliters of a freshly prepared enzyme solution (0.05 M Tris, 0.005 M dithiothreitol, 0.001 M disodium ethylenediaminetetraacetic acid (EDTA), pH 8.0, containing 11 units of pyroglutamate aminopeptidase/mL) was added. The vial was tightly capped, and incubated at room temperature (21-24° C.) for 24 hours. The solution was then processed through a C-18 SPE cartridge as detailed below. For free pyroglutamic acid determination, the initial sample solution was diluted to a total protein content of 2-3 g/L in deionized water, and processed through a C-18 SPE cartridge. C-18 SPE (Solid Phase Extraction) cartridges (100 mg/1 mL size) were obtained from Burdick & Jackson, Muskegon, Mich. SPE cartridges were prepared for use with 2×5 volumes of methanol, and then rinsed with 2×5 volumes of deionized water. The 1 mL sample is then slowly applied, and flow-through material collected in a […] screw cap vial. Elution was completed by applying 2×500 microliters of deionized water, collecting pass through volume in the same vial. The eluate was mixed, and then an aliquot filtered through a 0.45 micrometer filter prior to HPLC analysis (25 mm, 0.45 micrometer filters were obtained from Gelman, Ann Arbor, Mich.). The HPLC system used had the following parameters: pump model G1312A, autosampler model G1313A, thermostatted column compartment model G1316A, diode array detector model G1315A, and peak integrator/data processor model […], all obtained from Agilent Technologies, Palo Alto, Calif. Column: 6.5×150 mm ION-310, 8 micrometer from Interaction Chromatography, San Jose, Calif. The system was pre-equilibrated in mobile phase (5 mN H2SO4) at 40° C. at 0.3 mL/min. prior to use. For analysis a 10 microliter aliquot of sample or standard was injected, and the column was eluted with mobile phase at 0.3 mL/min. and 40° C. Eluting materials were detected by UV absorption at 210 nm and 220 nm. The run time was 45 min. Unknown sample concentrations were determined by comparison to standards. Three aqueous solutions of pyroglutamic acid are usually sufficient as standards, i.e., 10, 20, and 40 mg/L (pyroglutamic acid obtained from Fluka, Milwaukee, Wis.).

[2] = Aqueous stability at various pH values, ambient temperature (HPLC); format: physicochemical; conditions: for GLN (glutamine) in glutamine solution / PGA (pyroglutamic acid) in glutamine solution: pH 6.0, 1 mg/mL
Method: HPLC analysis was conducted using an Inertsil® C8, 5 micrometer, 4.6×250 mm column (obtained from Keystone Scientific, Inc., Bellefonte, Pa.). The mobile phase was water adjusted to pH 2.2 with HCl (isocratic at 1 mL/minute). The injection volume was 10 microliters. Ultraviolet detection was at 214 nm. In order to test the stability of N-acetyl-L-glutamine in aqueous solutions at various pH values, the following procedure was followed. Aqueous solutions of N-acetyl-L-glutamine were prepared in 1 pH unit increments from pH 2.0 to 8.0. The pH of the solutions was adjusted with either hydrochloric acid or sodium hydroxide, as needed, just prior to final dilution (final concentration=1 mg/mL or 5.3 mM N-acetyl-L-glutamine). A single solution of glutamine was not pH adjusted (measured pH=6.0) and was prepared at 1 mg/mL or 6.8 mM glutamine. All solutions were sterile-filtered (Millipore Millex®-GS, 25 mm, 0.22 micrometer pore size, sterile) into autosampler vials and capped for storage at ambient temperature (17-25° C.). N-acetyl-L-glutamine samples were assessed by HPLC at various time points, from 1 to 180 days. The glutamine sample was assessed by HPLC at similar time points, from 1 to 45 days.

[3] = 1 month at room temperature after sterilization
[4] = 2 months at room temperature after sterilization
[5] = 3 months at room temperature after sterilization
[6] = Post-Sterilization (retort, 128° C. for 5 minutes)
[7] = pH 3.0, ambient temperature, 6 months

NC(=O)CC[C@H](N)C(=O)O [Glutamine, glutamine]
Glutamine in product with glutamine [1, 3]: 13.7 mmol/L product | pyroglutamic acid in product with glutamine ([1]; 1 month, calculated with response factor from glutamine standard): 92.9* mmol/L product | Glutamine in product with glutamine [1, 4]: no glutamine was detected; also recorded: trace | pyroglutamic acid in product with glutamine ([1]; 2 months, calculated with response factor from pyroglutamic acid standard): 79.8** mmol/L product | Glutamine in product with glutamine [1, 5]: none | pyroglutamic acid in product with glutamine ([1]; 3 months, calculated with response factor from pyroglutamic acid standard): 80.6** mmol/L product | Glutamine in product with glutamine [1, 6]: 34.2 mmol/L product | pyroglutamic acid in product with glutamine ([1]; Post-Sterilization, calculated with response factor from glutamine standard): 77.5* mmol/L product | pyroglutamic acid in product with glutamine ([1]; Pre-Sterilization, calculated with response factor from glutamine standard): 27.1* mmol/L product | Glutamine remaining as fraction of the original concentration ([1]; glutamine supplemented product, after the sterilization process): about ⅓ | Glutamine in product with glutamine ([1]; liquid nutritional type product, Pre-Sterilization (theoretical 87.6)): 97.8 mmol/L product | GLN (glutamine) in glutamine solution ([2]; ambient temperature, 2 days): 100.0 height percent | PGA (pyroglutamic acid) in glutamine solution ([2]; ambient temperature, 2 days): none detected | GLN (glutamine) in glutamine solution ([2]; ambient temperature, 3 days): 99.8 height percent | PGA (pyroglutamic acid) in glutamine solution ([2]; ambient temperature, 3 days): 0.2 height percent | GLN (glutamine) in glutamine solution ([2]; ambient temperature, 7 days): 99.5 height percent | PGA (pyroglutamic acid) in glutamine solution ([2]; ambient temperature, 7 days): 0.5 height percent | GLN (glutamine) in glutamine solution ([2]; ambient temperature, 15 days): 99.0 height percent | PGA (pyroglutamic acid) in glutamine solution ([2]; ambient temperature, 15 days): 1.0 height percent | GLN (glutamine) in glutamine solution ([2]; ambient temperature, 30 days): 98.1 height percent | PGA (pyroglutamic acid) in glutamine solution ([2]; ambient temperature, 30 days): 1.9 height percent | GLN (glutamine) in glutamine solution ([2]; ambient temperature, 45 days): 96.7 height percent | PGA (pyroglutamic acid) in glutamine solution ([2]; ambient temperature, 45 days): 3.3 height percent

CC(=O)N[C@@H](CCC(N)=O)C(=O)O [N-acetyl-L-glutamine]
N-acetyl-L-glutamine in product with N-acetyl-L-glutamine [1, 3]: 89.8 mmol/L product | N-acetyl-L-glutamine in product with N-acetyl-L-glutamine [1, 4]: 94.1 mmol/L product | N-acetyl-L-glutamine in product with N-acetyl-L-glutamine [1, 5]: 89.3 mmol/L product | N-acetyl-L-glutamine in product with N-acetyl-L-glutamine [1, 6]: 89.8 mmol/L product | Degradation in the liquid nutritional type product (in words) ([1]; during sterilization or after 3 months room temperature storage): no degradation | N-acetyl-L-glutamine in product with N-acetyl-L-glutamine ([1]; liquid nutritional type product, Pre-Sterilization (theoretical 87.7)): 92.5 mmol/L product | Degradation of N-acetyl-L-glutamine ([2]; 1 mg/mL, all pH values (2.0 to 8.0), ambient temperature, through 7 days): no degradation | N-acetyl-L-glutamine remaining ([2]; pH 2.0, ambient temperature, 6 months): 55.7% | N-acetyl-L-glutamine remaining ([2]; pH 2.0, ambient temperature, 15 days): 97.0% | N-acetyl-L-glutamine remaining ([2]; pH 3.0, ambient temperature, 4 months): 94.2% | N-acetyl-L-glutamine remaining [2, 7]: 90.4% | N-acetyl-glutamic acid and 2,6-dioxopiperidinylacetamide (approximately equal levels) [2, 7]: about 5% | N-acetyl-glutamic acid and 2,6-dioxopiperidinylacetamide (approximately equal levels) ([2]; pH 3.0, ambient temperature, 15 days): about 0.15% | N-acetyl-glutamic acid and 2,6-dioxopiperidinylacetamide (approximately equal levels) ([2]; pH 3.0, ambient temperature, 30 days): about 1% | N-acetyl-L-glutamine remaining ([2]; pH 3.0, ambient temperature, through 90 days): > 95% | N-acetyl-L-glutamine remaining ([2]; pH 4.0, ambient temperature, six months): 97.9% | N-acetyl-L-glutamine remaining ([2]; pH 5.0 to 8.0, ambient temperature, 6 months): greater than 99.6%
